Data as given in patent US4051237A, “Glycopeptide antibiotics Bu-2231 A and B and process for producing same” (priority 1975, dated 1977).
In brackets after ≈: the same amount, converted by molar mass. Where two headings read alike, the source gives them in different places.

Columns and labels:
Lewis Lung carcinoma = details: Exp. #55; for Survivors Day 5: toxicity evaluation
B. cereus ATCC 10702A = assay: MIC by two-fold agar dilution; type: cell-based; details: Mueller-Hinton agar, unit assumed
S. lutea PCI-1001 = assay: MIC by two-fold agar dilution; type: cell-based; details: Mueller-Hinton agar, unit assumed
Mycobacterium 607, D46 = assay: MIC by two-fold agar dilution; type: cell-based; details: Medium #1001, unit assumed
C. tropicalis IAM 4157 = assay: MIC by two-fold agar dilution; type: cell-based; details: Ct-1 C. tropicalis IAM 4157; sabouraud agar; unit assumed
E. cloacae A21006 = assay: MIC by two-fold agar dilution; type: cell-based; details: Mueller-Hinton agar, unit assumed
E. coli A20665 = assay: MIC by two-fold agar dilution; type: cell-based; details: Mueller-Hinton agar, unit assumed
Sporotrichum sp. = assay: MIC by two-fold agar dilution; type: cell-based; details: Sy-1 Sporotrichum sp.; sabouraud agar; unit assumed
[1] = system: F. moniliforme NRRL A2284; assay: MIC by two-fold agar dilution; type: cell-based; details: Fm-1 F. moniliforme NRRL A2284; sabouraud agar; unit assumed
P. aeruginosa A20741 = assay: MIC by two-fold agar dilution; type: cell-based; details: Mueller-Hinton agar, unit assumed
E. coli NIHJ = assay: MIC by two-fold agar dilution; type: cell-based; details: Mueller-Hinton agar, unit assumed
Mycobacterium 607, D47 = assay: MIC by two-fold agar dilution; type: cell-based; details: Medium #1001, unit assumed
T. rubrum D-55 = assay: MIC by two-fold agar dilution; type: cell-based; details: Tr-1 T. rubrum D-55; sabouraud agar; unit assumed
[2] = system: Walker 256 carcinosarcoma in ascitic form; details: for Average Weight Change: recorded Day 5; for Survivors Day 44: survivors considered cured; for Survivors Day 5: toxicity evaluation;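 for all read-outs here: female SD rats bearing intraperitoneally implanted ascites tumor cells, treated ip once a day for 8 days beginning on Day 1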
E. coli A20683 = assay: MIC by two-fold agar dilution; type: cell-based; details: Mueller-Hinton agar, unit assumed
Mycobacterium 607, D87 = assay: MIC by two-fold agar dilution; type: cell-based; details: Medium #1001, unit assumed
K. pneumoniae A20328 = assay: MIC by two-fold agar dilution; type: cell-based; details: Mueller-Hinton agar, unit assumed
S. aureus 209P = assay: MIC by two-fold agar dilution; type: cell-based; details: Mueller-Hinton agar, unit assumed
P. stuartii A20894 = assay: MIC by two-fold agar dilution; type: cell-based; details: Mueller-Hinton agar, unit assumed
S. aureus Smith A9537 = assay: MIC by two-fold agar dilution; type: cell-based; details: Mueller-Hinton agar, unit assumed
S. marcescens A21235 = assay: MIC by two-fold agar dilution; type: cell-based; details: Mueller-Hinton agar, unit assumed
Mucor sp. = assay: MIC by two-fold agar dilution; type: cell-based; details: My-1 Mucor sp.; sabouraud agar; unit assumed
S. aureus #193 = assay: MIC by two-fold agar dilution; type: cell-based; details: Mueller-Hinton agar, unit assumed
[3] = system: C. tropicalis #125 A15051; assay: MIC by two-fold agar dilution; type: cell-based; details: Ct-4 C. tropicalis #125 A15051; sabouraud agar; unit assumed
P. mirabilis A9554 = assay: MIC by two-fold agar dilution; type: cell-based; details: Mueller-Hinton agar, unit assumed
S. marcescens A20460 = assay: MIC by two-fold agar dilution; type: cell-based; details: Mueller-Hinton agar, unit assumed
B. mycoides "0" = type: cell-based; details: Mueller-Hinton agar, unit assumed
S. aureus Smith = assay: In vivo activity in experimental mice infection; details: Table 11
Method: The in vivo activity of Bu-2231 complex was evaluated in experimental mice infections against S. aureus Smith and E. coli NIHJ. Bleomycin was tested comparatively as a reference antibiotic.

S. cerevisiae ATCC 9763 = assay: MIC by two-fold agar dilution; type: cell-based; details: Sc-1 S. cerevisiae ATCC 9763; sabouraud agar; unit assumed
S. aureus 209P, R4 = assay: MIC by two-fold agar dilution; type: cell-based; details: Mueller-Hinton agar, unit assumed
Method: The minimum inhibitory concentrations (MIC) of Bu-2231 A and B were determined against a wide variety of bacteria and fungi by the two-fold agar dilution method. Mueller-Hinton agar medium was used for the determination of bacterial MIC's (gram-positive and gram-negative), Medium #1001 [Glycerol (3%). Na-glutamate (0.3%), peptone (0.2%), Na2 HPO4 (0.31%), KH2 PO4 (0.1%), ammonium citrate (0.005%), MgSO4.7H2 O (0.001%), agar (1.5%)] for acid-fast bacteria and sabouraud agar for fungi. The results are shown in Tables 9 and 10 comparatively with bleomycin and phleomycin. The antibacterial and antifungal activities of Bu-2231 A and B are much higher than those of the reference antibiotics.

[4] = mice, single subcutaneous injection, 16 days
Method: The acute toxicity of copper-free Bu-2231 A and B was determined in mice by a single subcutaneous injection. Groups of 3 mice were used for each dose level and the body weight was recorded for 16 days.

[5] = 1 mg/kg/day ip once daily for 9 days
[6] = 2 mg/kg/day ip once daily for 9 days
[7] = 4 mg/kg/day ip once daily for 9 days
[8] = 8 mg/kg/day ip once daily for 9 days
[9] = Exp. #5439, 160 mcg/kg/day ip once daily for 8 days
[10] = Exp. #5439, 640 mcg/kg/day ip once daily for 8 days
[11] = Exp. #5439, 2560 mcg/kg/day ip once daily for 8 days

Bleomycin [reference compound]
Effect MST %T/C (Lewis Lung carcinoma; [5]): 109% | MST Days (Lewis Lung carcinoma; [5]): 24.0 days | Survivors Day 5 (Lewis Lung carcinoma; 1 mg/kg/day): 6/6 | Effect MST %T/C (Lewis Lung carcinoma; [6]): 109% | MST Days (Lewis Lung carcinoma; [6]): 24.0 days | Survivors Day 5 (Lewis Lung carcinoma; 2 mg/kg/day): 6/6 | Effect MST %T/C (Lewis Lung carcinoma; [7]): 57% | MST Days (Lewis Lung carcinoma; [7]): 12.5 days | Survivors Day 5 (Lewis Lung carcinoma; 4 mg/kg/day): 6/6 | Effect MST %T/C (Lewis Lung carcinoma; [8]): 48% | MST Days (Lewis Lung carcinoma; [8]): 10.5 days | Survivors Day 5 (Lewis Lung carcinoma; 8 mg/kg/day): 6/6 | MIC (B. cereus ATCC 10702A): 1.6 µg/mL | MIC (S. lutea PCI-1001): 100 µg/mL | MIC (Mycobacterium 607, D46): 0.2 µg/mL | MIC (C. tropicalis IAM 4157): 12.5 µg/mL | MIC (E. cloacae A21006): > 100 µg/mL | MIC (E. coli A20665): 0.2 µg/mL | MIC (Sporotrichum sp.): > 100 µg/mL | MIC [1]: > 100 µg/mL | MIC (P. aeruginosa A20741): 12.5 µg/mL | MIC (E. coli NIHJ): 0.8 µg/mL | MIC (Mycobacterium 607, D47): 0.4 µg/mL | MIC (T. rubrum D-55): > 100 µg/mL | Effect MST %T/C [2, 9]: 111% | MST Days [2, 9]: 10.0 days | Average Weight Change ([2]; Exp. #5439, 160 mcg/kg/day): +11 g. | Survivors Day 44 ([2]; Exp. #5439, 160 mcg/kg/day): 0/6 | Survivors Day 5 ([2]; Exp. #5439, 160 mcg/kg/day): 6/6 | Effect MST %T/C [2, 10]: 194% | MST Days [2, 10]: 17.5 days | Survivors Day 44 ([2]; Exp. #5439, 640 mcg/kg/day): 1/6 | Survivors Day 5 ([2]; Exp. #5439, 640 mcg/kg/day): 6/6 | Effect MST %T/C [2, 11]: > 489% | MST Days [2, 11]: > 44.0 days | Average Weight Change ([2]; Exp. #5439, 2560 mcg/kg/day): +10 g. | Survivors Day 44 ([2]; Exp. #5439, 2560 mcg/kg/day): 4/6 | Survivors Day 5 ([2]; Exp. #5439, 2560 mcg/kg/day): 6/6 | Effect MST %T/C ([2]; Exp. #5501, 160 mcg/kg/day ip once daily for 8 days): 157% | MST Days ([2]; Exp. #5501, 160 mcg/kg/day ip once daily for 8 days, Bu-2231 A and B as copper-free formate salts): 11.0 days | Survivors Day 5 ([2]; Exp. #5501, 160 mcg/kg/day): 6/6 | Effect MST %T/C ([2]; Exp. #5501, 640 mcg/kg/day ip once daily for 8 days): 179% | MST Days ([2]; Exp. #5501, 640 mcg/kg/day ip once daily for 8 days, Bu-2231 A and B as copper-free formate salts): 12.5 days | Survivors Day 5 ([2]; Exp. #5501, 640 mcg/kg/day): 6/6 | minimum effective dose (MED) ([2]; Table I, Walker 256 ascitic tumor): 0.64 mg/kg | MIC (E. coli A20683): > 100 µg/mL | MIC (Mycobacterium 607, D87): 0.8 µg/mL | MIC (K. pneumoniae A20328): 25 µg/mL | MIC (S. aureus 209P): 6.3 µg/mL | MIC (P. stuartii A20894): 3.1 µg/mL | MIC (S. aureus Smith A9537): 3.1 µg/mL | MIC (S. marcescens A21235): 100 µg/mL | MIC (Mucor sp.): 3.1 µg/mL | MIC (S. aureus #193): 12.5 µg/mL | MIC [3]: > 100 µg/mL | MIC (P. mirabilis A9554): 50 µg/mL | MIC (S. marcescens A20460): > 100 µg/mL | MIC (B. mycoides "0"): 12.5 µg/mL | PD50 (median protective dose) (S. aureus Smith; S. aureus Smith infection, mice, sc): 2.5 mg/kg | In vivo activity vs. S. aureus Smith infection (x/5 mice) (S. aureus Smith; dose (sc) 0.13 mg/kg): 0/5 | In vivo activity vs. S. aureus Smith infection (x/5 mice) (S. aureus Smith; dose (sc) 0.5 mg/kg): 1/5 | In vivo activity vs. S. aureus Smith infection (x/5 mice) (S. aureus Smith; dose (sc) 2 mg/kg): 2/5 | In vivo activity vs. S. aureus Smith infection (x/5 mice) (S. aureus Smith; dose (sc) 8 mg/kg): 4/5 | MIC (S. cerevisiae ATCC 9763): 0.8 µg/mL

Cc1c(N)nc([C@H](CC(N)=O)NC[C@H](N)C(N)=O)nc1C(=O)N[C@H](C(=O)N[C@H](C)[C@@H](O)CC(=O)N[C@H](C(=O)NC(O[C@@H]1O[C@@H](C)[C@@H](N)[C@@H](O)[C@H]1O)C(O)c1nc(-c2nc(C(=O)NCCCC(N)CC(=O)NCCCNCCCCN)cs2)cs1)[C@@H](C)O)[C@H](O[C@@H]1O[C@@H](CO)[C@@H](O)[C@H](O)[C@@H]1O[C@H]1O[C@H](CO)[C@@H](O)[C@H](OC(N)=O)[C@@H]1O)c1c[nH]cn1 (some centres unmarked) [Bu-2231 A Cu-free]
MIC (B. cereus ATCC 10702A): 0.2 µg/mL (≈ 0.115 µM) | MIC (S. lutea PCI-1001): 0.2 µg/mL (≈ 0.115 µM) | MIC (Mycobacterium 607, D46): 0.1 µg/mL (≈ 0.0577 µM) | MIC (C. tropicalis IAM 4157): 0.8 µg/mL (≈ 0.462 µM) | MIC (E. cloacae A21006): 1.6 µg/mL (≈ 0.924 µM) | MIC (E. coli A20665): 0.05 µg/mL (≈ 0.0289 µM) | MIC (Sporotrichum sp.): 3.1 µg/mL (≈ 1.79 µM) | MIC [1]: 0.8 µg/mL (≈ 0.462 µM) | MIC (P. aeruginosa A20741): 0.2 µg/mL (≈ 0.115 µM) | MIC (E. coli NIHJ): 0.025 µg/mL (≈ 0.0144 µM) | MIC (Mycobacterium 607, D47): 0.1 µg/mL (≈ 0.0577 µM) | MIC (T. rubrum D-55): 3.1 µg/mL (≈ 1.79 µM) | MIC (E. coli A20683): 6.3 µg/mL (≈ 3.64 µM) | MIC (Mycobacterium 607, D87): 0.2 µg/mL (≈ 0.115 µM) | MIC (S. aureus 209P, R4): 0.4 µg/mL (≈ 0.231 µM) | MIC (K. pneumoniae A20328): 0.8 µg/mL (≈ 0.462 µM) | MIC (S. aureus 209P): 0.1 µg/mL (≈ 0.0577 µM) | MIC (P. stuartii A20894): 0.4 µg/mL (≈ 0.231 µM) | MIC (S. aureus Smith A9537): 0.1 µg/mL (≈ 0.0577 µM) | MIC (S. marcescens A21235): 0.2 µg/mL (≈ 0.115 µM) | MIC (Mucor sp.): 6.3 µg/mL (≈ 3.64 µM) | MIC (S. aureus #193): 0.1 µg/mL (≈ 0.0577 µM) | MIC [3]: 0.8 µg/mL (≈ 0.462 µM) | MIC (P. mirabilis A9554): 0.1 µg/mL (≈ 0.0577 µM) | MIC (S. marcescens A20460): 0.4 µg/mL (≈ 0.231 µM) | MIC (B. mycoides "0"): 0.2 µg/mL (≈ 0.115 µM) | MIC (S. cerevisiae ATCC 9763): 0.4 µg/mL (≈ 0.231 µM) | LD50 [4]: 28 mg/kg
